# Experimental data: ChEMBL document CHEMBL2331144, “Synthesis and anticancer activity of analogues of phenstatin, with a phenothiazine A-ring, as a new class of microtubule-targeting agents” (Bioorg Med Chem Lett, 2013)
# Tests used:
# [1] = Inhibition of sheep brain tubulin polymerization using DAPI by fluorimetry; design: species or system Ovis aries
# [2] = system: M14; experiment: Growth inhibition of human M14 cells after 48 hrs by sulforhodamine B assay; type: functional; settings: M14, 48 h
# [3] = system: DU-145; experiment: Growth inhibition of human DU145 cells after 48 hrs by sulforhodamine B assay; type: functional; settings: DU-145, 48 h
# [4] = system: SW-620; experiment: Growth inhibition of human SW620 cells after 48 hrs by sulforhodamine B assay; type: functional; settings: SW-620, 48 h
# [5] = system: CCRF-CEM; experiment: Growth inhibition of human CCRF-CEM cells after 48 hrs by sulforhodamine B assay; type: functional
# [6] = system: SNB-75; experiment: Growth inhibition of human SNB75 cells after 48 hrs by sulforhodamine B assay; type: functional; settings: SNB-75, 48 h
# [7] = system: A498; experiment: Growth inhibition of human A498 cells after 48 hrs by sulforhodamine B assay; type: functional; settings: A498, 48 h
# [8] = system: LOX IMVI; experiment: Growth inhibition of human LOXIMVI cells after 48 hrs by sulforhodamine B assay; type: functional
# [9] = system: SR; experiment: Growth inhibition of human SR cells after 48 hrs by sulforhodamine B assay; type: functional
# [10] = system: COLO 205; experiment: Growth inhibition of human COLO205 cells after 48 hrs by sulforhodamine B assay; type: functional; settings: COLO 205, 48 h
# [11] = system: HL-60(TB); experiment: Growth inhibition of human HL-60(TB) cells after 48 hrs by sulforhodamine B assay; type: functional; settings: HL-60, 48 h
# [12] = system: RXF 393; experiment: Growth inhibition of human RXF393 cells after 48 hrs by sulforhodamine B assay; type: functional; settings: RXF 393, 48 h
# [13] = system: OVCAR-4; experiment: Growth inhibition of human OVCAR4 cells after 48 hrs by sulforhodamine B assay; type: functional; settings: OVCAR-4, 48 h
# [14] = system: SF-268; experiment: Growth inhibition of human SF268 cells after 48 hrs by sulforhodamine B assay; type: functional; settings: SF-268, 48 h
# [15] = Growth inhibition of human Hs 578T cells after 48 hrs by sulforhodamine B assay; type: functional
# [16] = system: 786-0; experiment: Growth inhibition of human 786-0 cells after 48 hrs by sulforhodamine B assay; type: functional; settings: 786-0, 48 h
# [17] = system: PC-3; experiment: Growth inhibition of human PC3 cells after 48 hrs by sulforhodamine B assay; type: functional; settings: PC-3, 48 h
# [18] = system: MDA-MB-231; experiment: Growth inhibition of human MDA-MB-231 cells after 48 hrs by sulforhodamine B assay; type: functional; settings: MDA-MB-231, 48 h
# [19] = system: OVCAR-8; experiment: Growth inhibition of human OVCAR8 cells after 48 hrs by sulforhodamine B assay; type: functional; settings: OVCAR-8, 48 h
# [20] = system: MOLT-4; experiment: Growth inhibition of human MOLT4 cells after 48 hrs by sulforhodamine B assay; type: functional; settings: MOLT-4, 48 h
# [21] = system: SK-OV-3; experiment: Growth inhibition of human SKOV3 cells after 48 hrs by sulforhodamine B assay; type: functional; settings: SK-OV-3, 48 h
# [22] = system: UO-31; experiment: Growth inhibition of human UO31 cells after 48 hrs by sulforhodamine B assay; type: functional; settings: UO-31, 48 h
# [23] = system: SK-MEL-2; experiment: Growth inhibition of human SK-MEL-2 cells after 48 hrs by sulforhodamine B assay; type: functional; settings: SK-MEL-2, 48 h
# [24] = system: MDA-MB-468; experiment: Growth inhibition of human MDA-MB-468 cells after 48 hrs by sulforhodamine B assay; type: functional; settings: MDA-MB-468, 48 h
# [25] = system: MCF7; experiment: Growth inhibition of human MCF7 cells after 48 hrs by sulforhodamine B assay; type: functional; settings: MCF7, 48 h
# [26] = system: RPMI-8226; experiment: Growth inhibition of human RPMI8226 cells after 48 hrs by sulforhodamine B assay; type: functional; settings: RPMI-8226, 48 h
# [27] = system: NCI-H23; experiment: Growth inhibition of human NCI-H23 cells after 48 hrs by sulforhodamine B assay; type: functional; settings: NCI-H23, 48 h
# [28] = system: T47D; experiment: Growth inhibition of human T47D cells after 48 hrs by sulforhodamine B assay; type: functional
# [29] = system: TK-10; experiment: Growth inhibition of human TK10 cells after 48 hrs by sulforhodamine B assay; type: functional; settings: TK-10, 48 h
# [30] = system: SN12C; experiment: Growth inhibition of human SN12C cells after 48 hrs by sulforhodamine B assay; type: functional
# [31] = system: KM12; experiment: Growth inhibition of human KM12 cells after 48 hrs by sulforhodamine B assay; type: functional; settings: KM12, 48 h
# [32] = system: HCT-116; experiment: Growth inhibition of human HCT116 cells after 48 hrs by sulforhodamine B assay; type: functional; settings: HCT-116, 48 h
# [33] = Growth inhibition of human HCC2998 cells after 48 hrs by sulforhodamine B assay; type: functional; settings: HCC 2998, 48 h
# [34] = system: Malme-3M; experiment: Growth inhibition of human MALME-3M cells after 48 hrs by sulforhodamine B assay; type: functional
# [35] = system: MDA-MB-435; experiment: Growth inhibition of human MDA-MB-435 cells after 48 hrs by sulforhodamine B assay; type: functional; settings: MDA-MB-435, 48 h
# [36] = system: OVCAR-5; experiment: Growth inhibition of human OVCAR5 cells after 48 hrs by sulforhodamine B assay; type: functional; settings: OVCAR-5, 48 h
# [37] = Growth inhibition of human NCI-ADR-RES cells after 48 hrs by sulforhodamine B assay; type: functional
# [38] = system: SK-MEL-5; experiment: Growth inhibition of human SK-MEL-5 cells after 48 hrs by sulforhodamine B assay; type: functional; settings: SK-MEL-5, 48 h
# [39] = system: UACC-62; experiment: Growth inhibition of human UACC62 cells after 48 hrs by sulforhodamine B assay; type: functional; settings: UACC-62, 48 h
# [40] = system: CAKI-1; experiment: Growth inhibition of human CAKI-1 cells after 48 hrs by sulforhodamine B assay; type: functional; settings: CAKI-1, 48 h
# [41] = system: ACHN; experiment: Growth inhibition of human ACHN cells after 48 hrs by sulforhodamine B assay; type: functional
# [42] = species on record: Ovis aries; experiment: Inhibition of sheep brain tubulin polymerization at 100 uM using DAPI by fluorimetry
# [43] = system: SF-539; experiment: Growth inhibition of human SF539 cells after 48 hrs by sulforhodamine B assay; type: functional; settings: SF-539, 48 h
# [44] = system: IGROV-1; experiment: Growth inhibition of human IGROV1 cells after 48 hrs by sulforhodamine B assay; type: functional; settings: IGROV-1, 48 h
# [45] = system: OVCAR-3; experiment: Growth inhibition of human OVCAR3 cells after 48 hrs by sulforhodamine B assay; type: functional; settings: OVCAR-3, 48 h
# [46] = system: UACC-257; experiment: Growth inhibition of human UACC257 cells after 48 hrs by sulforhodamine B assay; type: functional; settings: UACC-257, 48 h
# [47] = system: NCI-H522; experiment: Growth inhibition of human NCI-H522 cells after 48 hrs by sulforhodamine B assay; type: functional; settings: NCI-H522, 48 h
# [48] = system: NCI-H460; experiment: Growth inhibition of human NCI-H460 cells after 48 hrs by sulforhodamine B assay; type: functional; settings: NCI-H460, 48 h
# [49] = system: HT-29; experiment: Growth inhibition of human HT-29 cells after 48 hrs by sulforhodamine B assay; type: functional; settings: HT-29, 48 h
# [50] = system: K562; experiment: Growth inhibition of human K562 cells after 48 hrs by sulforhodamine B assay; type: functional; settings: K562, 48 h
# [51] = system: HOP-62; experiment: Growth inhibition of human HOP62 cells after 48 hrs by sulforhodamine B assay; type: functional; settings: HOP-62, 48 h
# [52] = system: SK-MEL-28; experiment: Growth inhibition of human SK-MEL-28 cells after 48 hrs by sulforhodamine B assay; type: functional; settings: SK-MEL-28, 48 h
# [53] = system: HCT-15; experiment: Growth inhibition of human HCT15 cells after 48 hrs by sulforhodamine B assay; type: functional; settings: HCT-15, 48 h
# [54] = system: SF-295; experiment: Growth inhibition of human SF295 cells after 48 hrs by sulforhodamine B assay; type: functional; settings: SF-295, 48 h
# [55] = system: A549; experiment: Growth inhibition of human A549/ATCC cells after 48 hrs by sulforhodamine B assay; type: functional; settings: A549, 48 h
# [56] = system: BT-549; experiment: Growth inhibition of human BT549 cells after 48 hrs by sulforhodamine B assay; type: functional; settings: BT-549, 48 h
# [57] = system: HOP-92; experiment: Growth inhibition of human HOP92 cells after 48 hrs by sulforhodamine B assay; type: functional; settings: HOP-92, 48 h
compound,measurement,setting,value
C=C(c1ccc(OC)c(O)c1)c1cc(OC)c(OC)c(OC)c1,IC50,[1],1500 nM
COc1c(F)ccc(C(=O)N2c3ccccc3Sc3ccccc32)c1F,GI50,[2],3860 nM
same,GI50,[3],14000 nM
same,GI50,[4],3680 nM
same,GI50,[5],5000 nM
same,GI50,[6],2320 nM
same,GI50,[7],2220 nM
same,GI50,[8],4720 nM
same,GI50,[9],2330 nM
same,GI50,[10],6470 nM
same,GI50,[11],3990 nM
same,GI50,[12],2290 nM
same,GI50,[13],10300 nM
same,GI50,[14],6500 nM
same,GI50,[15],6920 nM
same,GI50,[16],7570 nM
same,GI50,[17],2840 nM
same,GI50,[18],3660 nM
same,GI50,[19],10000 nM
same,GI50,[20],4290 nM
same,GI50,[21],12200 nM
same,GI50,[22],6520 nM
same,GI50,[23],3450 nM
same,GI50,[24],1700 nM
same,GI50,[25],5500 nM
same,GI50,[26],3220 nM
same,GI50,[27],4890 nM
same,GI50,[28],5240 nM
same,GI50,[29],10200 nM
same,GI50,[30],6070 nM
same,GI50,[31],4010 nM
same,GI50,[32],3600 nM
same,GI50,[33],11700 nM
same,GI50,[34],3090 nM
same,GI50,[35],1800 nM
same,GI50,[36],24100 nM
same,GI50,[37],2970 nM
same,GI50,[38],2950 nM
same,GI50,[39],2680 nM
same,GI50,[40],4010 nM
same,GI50,[41],7960 nM
same,inhibition,[42],10%
same,GI50,[43],5030 nM
same,GI50,[44],4870 nM
same,GI50,[45],4200 nM
same,GI50,[46],6510 nM
same,GI50,[47],2700 nM
same,GI50,[48],3670 nM
same,GI50,[49],3240 nM
same,GI50,[50],3240 nM
same,GI50,[51],8370 nM
same,GI50,[52],4930 nM
same,GI50,[53],3070 nM
same,GI50,[54],6100 nM
same,GI50,[55],4070 nM
same,GI50,[56],5210 nM
CCOc1ccc(C(=O)N2c3ccccc3Sc3ccccc32)cc1Cl,GI50,[2],373 nM
same,GI50,[3],476 nM
same,GI50,[4],349 nM
same,GI50,[5],361 nM
same,GI50,[6],283 nM
same,GI50,[7],210 nM
same,GI50,[8],750 nM
same,GI50,[9],142 nM
same,GI50,[10],354 nM
same,GI50,[11],315 nM
same,GI50,[12],236 nM
same,GI50,[13],3750 nM
same,GI50,[14],1760 nM
same,GI50,[15],573 nM
same,GI50,[16],481 nM
same,GI50,[17],390 nM
same,GI50,[18],531 nM
same,GI50,[19],596 nM
same,GI50,[20],408 nM
same,GI50,[21],623 nM
same,GI50,[22],520 nM
same,GI50,[23],395 nM
same,GI50,[24],257 nM
same,GI50,[25],419 nM
same,GI50,[26],424 nM
same,GI50,[27],999 nM
same,GI50,[28],466 nM
same,GI50,[29],857 nM
same,GI50,[30],777 nM
same,GI50,[31],426 nM
same,GI50,[57],272 nM
same,GI50,[32],457 nM
same,GI50,[33],2700 nM
same,GI50,[34],446 nM
same,GI50,[35],95 nM
same,GI50,[36],527 nM
same,GI50,[37],376 nM
same,GI50,[38],333 nM
same,GI50,[39],451 nM
same,GI50,[40],457 nM
same,GI50,[41],447 nM
same,inhibition,[42],48%
same,GI50,[43],239 nM
same,GI50,[44],1020 nM
same,GI50,[45],231 nM
same,GI50,[46],564 nM
same,GI50,[47],221 nM
same,GI50,[48],368 nM
same,GI50,[49],320 nM
same,GI50,[50],277 nM
same,GI50,[51],512 nM
same,GI50,[52],817 nM
same,GI50,[53],373 nM
same,GI50,[54],254 nM
same,GI50,[55],620 nM
same,GI50,[56],613 nM
